Measured values published in PubChem BioAssay (NCI).
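Interpolation was linear, between the two tested concentrations surrounding the appropriate level; five concentrations were tested over 48 hours in 96-well plates. TGI is the concentration that stops growth completely.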

Columns and labels:
Experiment in all cases: DTP human tumour cell line panel, 48 h
EKVX NSCLC = test system: EKVX NSCLC
SR leukemia = test system: SR leukemia
MOLT-4 leukemia = test system: MOLT-4 leukemia
SNB-75 CNS = test system: SNB-75 CNS
DMS 114 small cell lung = test system: DMS 114 small cell lung
SK-MEL-2 melanoma = test system: SK-MEL-2 melanoma
SF-295 CNS = test system: SF-295 CNS
UACC-257 melanoma = test system: UACC-257 melanoma
SN12C renal = test system: SN12C renal
M19-MEL melanoma = test system: M19-MEL melanoma
SNB-78 CNS = test system: SNB-78 CNS
SK-MEL-5 melanoma = test system: SK-MEL-5 melanoma
NCI-H226 lung = test system: NCI-H226 lung
UACC-62 melanoma = test system: UACC-62 melanoma
NCI-H522 lung = test system: NCI-H522 lung
CCRF-CEM leukemia = test system: CCRF-CEM leukemia
786-0 renal = test system: 786-0 renal
RXF 393 renal = test system: RXF 393 renal
XF 498 CNS = test system: XF 498 CNS
KM12 colon = test system: KM12 colon
UO-31 renal = test system: UO-31 renal
LXFL 529 NSCLC = test system: LXFL 529 NSCLC
SF-268 CNS = test system: SF-268 CNS
A549 NSCLC = test system: A549 NSCLC
NCI-H23 lung = test system: NCI-H23 lung
HL-60(TB) leukemia = test system: HL-60(TB) leukemia
COLO 205 colon = test system: COLO 205 colon
SW-620 colon = test system: SW-620 colon
NCI-H460 lung = test system: NCI-H460 lung
U251 CNS = test system: U251 CNS
OVCAR-4 ovarian = test system: OVCAR-4 ovarian
HOP-62 NSCLC = test system: HOP-62 NSCLC
HCT-116 colon = test system: HCT-116 colon
OVCAR-8 ovarian = test system: OVCAR-8 ovarian
HCT-15 colon = test system: HCT-15 colon
SK-OV-3 ovarian = test system: SK-OV-3 ovarian
M14 melanoma = test system: M14 melanoma
ACHN renal = test system: ACHN renal
HT29 colon = test system: HT29 colon
SK-MEL-28 melanoma = test system: SK-MEL-28 melanoma
MALME-3M melanoma = test system: MALME-3M melanoma
DMS 273 small cell lung = test system: DMS 273 small cell lung
RPMI-8226 leukemia = test system: RPMI-8226 leukemia
SNB-19 CNS = test system: SNB-19 CNS
KM20L2 colon = test system: KM20L2 colon
K-562 leukemia = test system: K-562 leukemia
HOP-18 NSCLC = test system: HOP-18 NSCLC
TK-10 renal = test system: TK-10 renal
LOX IMVI melanoma = test system: LOX IMVI melanoma
OVCAR-5 ovarian = test system: OVCAR-5 ovarian
DU-145 prostate = test system: DU-145 prostate
NCI/ADR-RES ovarian = test system: NCI/ADR-RES ovarian
IGROV1 ovarian = test system: IGROV1 ovarian
CAKI-1 renal = test system: CAKI-1 renal
MCF7 breast = test system: MCF7 breast
T-47D breast = test system: T-47D breast
MDA-N = test system: MDA-N
MDA-MB-231 breast = test system: MDA-MB-231 breast
HCC-2998 colon = test system: HCC-2998 colon
HS 578T breast = test system: HS 578T breast
DLD-1 colon = test system: DLD-1 colon
SF-539 CNS = test system: SF-539 CNS
HOP-92 NSCLC = test system: HOP-92 NSCLC
BT-549 breast = test system: BT-549 breast
OVCAR-3 ovarian = test system: OVCAR-3 ovarian
MDA-MB-435 = test system: MDA-MB-435
PC-3 prostate = test system: PC-3 prostate
A498 renal = test system: A498 renal

Cc1ccc(NC(=O)CSc2nnc(Cc3ccccc3)o2)c(C)c1
TGI (EKVX NSCLC): > 100 µM
TGI (SR leukemia): > 100 µM
TGI (MOLT-4 leukemia): > 100 µM
TGI (SNB-75 CNS): > 100 µM
TGI (DMS 114 small cell lung): > 100 µM
TGI (SK-MEL-2 melanoma): > 100 µM
TGI (SF-295 CNS): > 100 µM
TGI (UACC-257 melanoma): > 100 µM
TGI (SN12C renal): > 100 µM
TGI (M19-MEL melanoma): > 100 µM
TGI (SNB-78 CNS): > 100 µM
TGI (SK-MEL-5 melanoma): > 100 µM
TGI (NCI-H226 lung): > 100 µM
TGI (UACC-62 melanoma): > 100 µM
TGI (NCI-H522 lung): > 100 µM
TGI (CCRF-CEM leukemia): > 100 µM
TGI (786-0 renal): > 100 µM
TGI (RXF 393 renal): > 100 µM
TGI (XF 498 CNS): > 100 µM
TGI (KM12 colon): > 100 µM
TGI (UO-31 renal): > 100 µM
TGI (LXFL 529 NSCLC): > 100 µM
TGI (SF-268 CNS): > 100 µM
TGI (A549 NSCLC): > 100 µM
TGI (NCI-H23 lung): > 100 µM
TGI (HL-60(TB) leukemia): > 100 µM
TGI (COLO 205 colon): > 100 µM
TGI (SW-620 colon): > 100 µM
TGI (NCI-H460 lung): > 100 µM
TGI (U251 CNS): > 100 µM
TGI (OVCAR-4 ovarian): > 100 µM
TGI (HOP-62 NSCLC): > 100 µM
TGI (HCT-116 colon): > 100 µM
TGI (OVCAR-8 ovarian): > 100 µM
TGI (HCT-15 colon): > 100 µM
TGI (SK-OV-3 ovarian): > 100 µM
TGI (M14 melanoma): > 100 µM
TGI (ACHN renal): > 100 µM
TGI (HT29 colon): > 100 µM
TGI (SK-MEL-28 melanoma): > 100 µM
TGI (MALME-3M melanoma): > 100 µM
TGI (DMS 273 small cell lung): > 100 µM
TGI (RPMI-8226 leukemia): > 100 µM
TGI (SNB-19 CNS): > 100 µM
TGI (KM20L2 colon): > 100 µM
TGI (K-562 leukemia): > 100 µM
TGI (HOP-18 NSCLC): > 100 µM
TGI (TK-10 renal): > 100 µM
TGI (LOX IMVI melanoma): > 100 µM

O=c1c2ccccc2sc2nc(CCl)nn12
TGI (OVCAR-5 ovarian): > 100 µM
TGI (EKVX NSCLC): 29.1 µM
TGI (SR leukemia): 37.7 µM
TGI (DU-145 prostate): 21.2 µM
TGI (MOLT-4 leukemia): > 100 µM
TGI (SNB-75 CNS): 55.2 µM
TGI (NCI/ADR-RES ovarian): > 100 µM
TGI (DMS 114 small cell lung): 48.6 µM
TGI (SK-MEL-2 melanoma): > 100 µM
TGI (SF-295 CNS): > 82.9 µM
TGI (IGROV1 ovarian): 49.5 µM
TGI (UACC-257 melanoma): 32.9 µM
TGI (SN12C renal): 29.4 µM
TGI (CAKI-1 renal): 22.3 µM
TGI (MCF7 breast): 36.3 µM
TGI (M19-MEL melanoma): > 62.8 µM
TGI (SNB-78 CNS): > 100 µM
TGI (SK-MEL-5 melanoma): > 100 µM
TGI (NCI-H226 lung): > 100 µM
TGI (UACC-62 melanoma): 17 µM
TGI (T-47D breast): 19.9 µM
TGI (MDA-N): 17.3 µM
TGI (NCI-H522 lung): 67.8 µM
TGI (CCRF-CEM leukemia): > 100 µM
TGI (786-0 renal): 34.1 µM
TGI (RXF 393 renal): 24.5 µM
TGI (XF 498 CNS): 1.82 µM
TGI (KM12 colon): > 100 µM
TGI (MDA-MB-231 breast): 23.4 µM
TGI (UO-31 renal): 22.8 µM
TGI (LXFL 529 NSCLC): 62.5 µM
TGI (SF-268 CNS): 60.6 µM
TGI (A549 NSCLC): 93 µM
TGI (NCI-H23 lung): 28.5 µM
TGI (HL-60(TB) leukemia): 44.3 µM
TGI (COLO 205 colon): 30.2 µM
TGI (HCC-2998 colon): 31.4 µM
TGI (HS 578T breast): 38.1 µM
TGI (SW-620 colon): 45.6 µM
TGI (NCI-H460 lung): 16.5 µM
TGI (U251 CNS): > 100 µM
TGI (OVCAR-4 ovarian): > 100 µM
TGI (HOP-62 NSCLC): > 100 µM
TGI (DLD-1 colon): 21.3 µM
TGI (SF-539 CNS): > 80.4 µM
TGI (HCT-116 colon): 16.3 µM
TGI (OVCAR-8 ovarian): > 100 µM
TGI (HCT-15 colon): 18.7 µM
TGI (SK-OV-3 ovarian): 37.5 µM
TGI (M14 melanoma): 60.3 µM
TGI (ACHN renal): 21.6 µM
TGI (HT29 colon): 66 µM
TGI (HOP-92 NSCLC): 14.8 µM
TGI (SK-MEL-28 melanoma): 28.3 µM
TGI (MALME-3M melanoma): 49.4 µM
TGI (BT-549 breast): > 91.6 µM
TGI (OVCAR-3 ovarian): > 100 µM
TGI (DMS 273 small cell lung): 22.2 µM
TGI (MDA-MB-435): 29.6 µM
TGI (RPMI-8226 leukemia): > 100 µM
TGI (SNB-19 CNS): > 100 µM
TGI (KM20L2 colon): 38 µM
TGI (PC-3 prostate): 10.7 µM
TGI (A498 renal): 8.42 µM
TGI (K-562 leukemia): 28.9 µM
TGI (TK-10 renal): 25.4 µM
TGI (LOX IMVI melanoma): > 100 µM
